Laboratory results published in publication PMC3545992, “Trisubstituted Pyrazolopyrimidines as Novel Angiogenesis Inhibitors” (PLoS ONE, 2013).
Where two headings read alike, the source gives them in different places.

Legend:
[1] = test system: endothelial cells; parameters: method as in PMID 21487803; conditions: cited from earlier work
[2] = test system: endothelial cells; parameters: method as in PMID 20826806; conditions: 10 µM; cited from earlier work
[3] = test system: HMEC-1 cells; assay: Crystal violet proliferation assay; assay type: cell-based, human; conditions: HMEC-1, 72 h, read-out: IC50 endothelial cell proliferation
Description: HMEC-1 cells were seeded to a density of 1,500 cells/well. After 24 h of incubation, a zero point control was stained with crystal violet. The remaining cells were left untreated as positive control or treated with 0.3-1-3-10–30 µM of the indicated compounds. After 72 h additional incubation, relative proliferation was determined by crystal violet staining and quantified as absorption at 550 nm.
HMEC-1 were seeded into 96-well-plates (1,500 cells/well). After 24 h, the cells were stimulated with the indicated compounds. At the same time point, cells in a reference plate were stained with crystal violet, serving as initial cell number. After 72 hours of stimulation, cells were fixed and stained with crystal-violet solution for 10 minutes, washed with water, and air dried. Crystal violet was eluted with dissolving buffer and absorbance was measured at 550 nm (Tecan Sunrise Absorbance reader, TECAN, Crailsheim, Germany). In a parallel series of experiments, cells seeded at the same cell density as in the proliferation assays were treated with 30 µM of the respective compound for 72 h. Afterwards, 10 µg/ml propidium iodide was added for 30 min to counterstain cells for membrane integrity. Phase contrast and fluorescence images were obtained with an inverted Nikon microscope (Ti, Nikon, Düsseldorf, Germany) equipped with a 10x objective.

[4] = test system: HUVECs; assay: Cell viability assay (CellTiter-Blue) in confluent HUVECs; assay type: cell-based, human; conditions: 30 µM, 16 h
Description: Figure 2 Cdk5 is expressed in HUVECs and HMEC-1 cells, and the compounds are not cytotoxic to endothelial cells at concentrations used in functional assays. A: Cdk5 protein expression in endothelial cells in comparison to human cortex. Cdk5 protein amount was analyzed by Western blot in samples of human cortex (HC), confluent HUVECs (HU) and HMEC-1 (HM). β-actin served as a loading control and for normalization of protein amount. Relative quantification (left panel) and one representative image (right panel) of three individual blots are shown. Note the much lower protein loading in the HC sample in the right panel. (n = 3, mean ± SEM, p>0.05, One Way ANOVA, Dunnett). B: Confluent HUVECs were treated for 16 h with 10 or 30 µM of the indicated compounds or left untreated as control. After addition of CellTiter-BlueTM Reagent, cells were incubated for 4 h and fluorescence was measured at 560 nm (n = 3, mean ± SEM, * p<0.05, One Way ANOVA, Dunnett).
HUVECs were seeded in 96-well plates. After reaching confluency, the cells were treated for 16 h with the indicated compounds or left untreated as control. After addition of CellTiter-Blue^TM Reagent (Promega Corporation, Madison, WI, USA), cells were incubated for additional 4 h and fluorescence was measured at 560 nm in a plate-reading photometer (SpectraFluor Plus; Tecan, Crailsheim, Germany).

[5] = test system: HUVECs; assay: Scratch assay (migration assay); assay type: cell-based, human
Description: A: HMEC-1 cells were seeded in the same density as for the proliferation assay and treated with the respective compound at 30 µM for 72 h to test whether reduced cell numbers in the proliferation assay are due to inhibition of proliferation or to excessive cell death. No increase of detached, obviously dead or propidium iodide positive cells was detected. B and C: Confluent layers of HUVECs were scratched and the cells were allowed to migrate for 16 h in the presence or absence of 10 µM of the compounds. B: The columns indicate the area re-covered by migrating cells (n = 3, mean ± SEM, * p<0.05, One Way ANOVA, Dunnett). C: Scratches at endpoint, representative images taken out of three experiments.
HUVECs were seeded into a 24-well plate. After reaching confluency, cells were scratched using a 100 µl pipette tip. The wounded monolayers were washed twice with PBS containing Ca^2+/Mg^2+; then growth medium containing the indicated concentration of the compounds was added. After 16 h of migration, cells were washed and subsequently fixed with 4% paraformaldehyde. […] Images were taken using the TILLvisON system (TILL Photonics GmbH, Gräfelfing, Germany) and a CCD-camera connected to an Axiovert 200 microscope (Zeiss, Oberkochen, Germany). Quantitative image analysis of the cell covered area was done by Wimasis GmbH, Munich. A completely closed scratch was set as 100% migration, the area of the original open scratch was set as 0% migration.

| Compound | IC50 ([3]; Homo sapiens) [µM] | cell viability in comparison to control [4] | also measured |
| --- | --- | --- | --- |
| CC[C@H](CO)Nc1nc(NCc2ccccc2)c2ncn(C(C)C)c2n1 [roscovitine, (R)-roscovitine] |  |  | concentration at which proliferation only started to be reduced [1]: 30 µM; reduction of migration [2]: 20% |
| CC(C)c1n[nH]c2c(NCc3ccccc3N)nc(NC[C@H](C)O)nc12 [LGR 1695, 7-(2-Aminobenzyl)amino-5(S)-[(2-hydroxypropyl)amino]-3-isopropyl-1(2)H–pyrazolo[4,3-d]pyrimidine] | 10.2 | weak but significant decrease of viability |  |
| CC(C)c1n[nH]c2c(NCc3ccccc3)nc(NC[C@@H](C)O)nc12 [LGR 1667, 7-Benzylamino-5(R)-[(2-hydroxypropyl)amino]-3-isopropyl-1(2)H-pyrazolo[4,3-d]pyrimidine] | 9.54 |  |  |
| CC(C)n1cnc2c(NCc3ccccc3N)nc(NC[C@@H](C)O)nc21 [LGR 1730] | ~20 | weak but significant decrease of viability | IC50 [3]: 18.2 µM; effect on endothelial cell migration (in words) ([5]; 10 µM, 16 h, HUVECs): no significant impact |
| CC(C)c1n[nH]c2c(NCc3ccccc3N)nc(NC3CCCCC3N)nc12 (centres unmarked) [LGR 1430, 7-(2-Aminobenzyl)amino-5-[(2-E/Z-aminocyclohexyl)amino]-3-isopropyl-1(2)H-pyrazolo-[4,3-d]pyrimidine] | 6.16 |  | effect on migration (in words) ([5]; 30 µM, data not shown): no detectable effect |
